From patent publication US12122761B2, “2-azaspiro[3.4]octane derivatives as M4 agonists” (NOVARTIS AG, priority 2019, dated 2024)

Legend:
[1] = biological target: T1, human cloned CHRM2 receptor (M2_CHO cells) (Homo sapiens, UniProt P08172); test: CHRM2 Ca++ Flux Assay (agonist mode, FDSS 7000EX); format: cell-based; settings: for Emax: Percent Activity measured to EC100 of Carbachol, read-out: M2 FDSS PA; for EC50: agonist mode, geometric mean if tested more than once, read-out: M2 FDSS EC50
T1 construct: expressed in transfected cells; host or cells: CHO-K1
T1 sequence (P08172 1-466): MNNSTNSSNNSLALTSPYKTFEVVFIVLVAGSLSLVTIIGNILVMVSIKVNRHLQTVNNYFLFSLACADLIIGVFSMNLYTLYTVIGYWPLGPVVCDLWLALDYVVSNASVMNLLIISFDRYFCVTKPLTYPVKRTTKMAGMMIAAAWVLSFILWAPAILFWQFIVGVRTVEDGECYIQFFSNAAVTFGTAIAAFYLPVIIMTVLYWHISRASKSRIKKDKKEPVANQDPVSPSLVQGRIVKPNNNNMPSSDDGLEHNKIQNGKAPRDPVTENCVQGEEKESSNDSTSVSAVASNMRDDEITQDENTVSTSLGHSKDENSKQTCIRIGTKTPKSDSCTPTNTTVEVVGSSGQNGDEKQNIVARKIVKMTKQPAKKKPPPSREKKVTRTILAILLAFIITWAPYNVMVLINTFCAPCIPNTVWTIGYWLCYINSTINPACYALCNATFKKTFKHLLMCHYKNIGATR
How it was run: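 Agonist-mode Ca++ flux in CHO-K1 cells stably expressing human CHRM2, dye-loaded, then held 60 min at room temperature in buffer with 20 μM ATP before compound addition; traces read over 3 minutes. Four-parameter fit of triplicate wells; percent activity relative to Carbachol EC100.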

[2] = biological target: T2, human cloned CHRM5 receptor (M5_CHO) (Homo sapiens, UniProt P08912); test: CHRM5 Ca++ Flux Assay (agonist mode, FDSS 7000EX); format: cell-based; settings: for Emax: Percent Activity measured to EC100 of Carbachol, read-out: M5 FDSS PA; for EC50: agonist mode, geometric mean if tested more than once, read-out: M5 FDSS EC50
T2 construct: expressed in transfected cells; host or cells: CHO (M5_CHO)
T2 sequence (P08912 1-532): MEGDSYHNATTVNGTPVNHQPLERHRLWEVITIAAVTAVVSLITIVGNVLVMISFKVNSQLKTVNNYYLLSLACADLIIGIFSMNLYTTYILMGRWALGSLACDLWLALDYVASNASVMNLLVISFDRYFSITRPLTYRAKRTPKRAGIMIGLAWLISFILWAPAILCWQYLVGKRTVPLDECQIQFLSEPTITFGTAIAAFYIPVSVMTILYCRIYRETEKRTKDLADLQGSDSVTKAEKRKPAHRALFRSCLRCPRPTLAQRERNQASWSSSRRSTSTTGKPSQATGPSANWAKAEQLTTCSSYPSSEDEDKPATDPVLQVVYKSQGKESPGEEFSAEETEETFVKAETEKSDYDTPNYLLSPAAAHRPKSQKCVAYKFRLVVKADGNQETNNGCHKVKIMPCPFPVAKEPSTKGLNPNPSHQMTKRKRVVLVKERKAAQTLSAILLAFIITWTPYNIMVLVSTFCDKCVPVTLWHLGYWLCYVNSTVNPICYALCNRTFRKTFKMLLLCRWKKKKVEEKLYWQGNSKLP
How it was run: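 Agonist responses are measured as calcium mobilization in CHO-K1 cells expressing human M3 or M5, tested over an 11-point dose range in triplicate. Percent activity is normalised to carbachol at EC100.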

Emax [1] [%]	EC50 [1] [µM]	Emax [2] [%]	EC50 [2] [µM]	SMILES
41	0.125	0	> 25	Fc1ccc(C2CCOCC2)c(C2CCN([C@@H]3CCC4(C3)CN(c3nnco3)C4)CC2)c1 [Example 2I, (R)-2-(6-(4-(5-fluoro-2-(tetrahydro-2H-pyran-4-yl)phenyl)piperidin-1-yl)-2-azaspiro[3.4]octan-2-yl)-1,3,4-oxadiazole]
0	–	0	> 25	COc1ccc(F)cc1C1CCN([C@@H]2CCC3(C2)CN(c2ccnnc2)C3)CC1 [Example 5V, (R)-6-(4-(5-fluoro-2-methoxyphenyl)piperidin-1-yl)-2-(pyridazin-4-yl)-2-azaspiro[3.4]octane]
17	–	0	> 25	COc1ccccc1C1CCN([C@@H]2CCC3(C2)CN(c2nncs2)C3)CC1 [Example 3D, (R)-2-(6-(4-(2-methoxyphenyl)piperidin-1-yl)-2-azaspiro[3.4]octan-2-yl)-1,3,4-thiadiazole]
16	0.154	0	> 25	COC(C)(C)COc1ccccc1C1CCN([C@@H]2CCC3(C2)CN(C(=O)C2COC2)C3)CC1 [Example 7HH, (R)-(6-(4-(2-(2-methoxy-2-methylpropoxy)phenyl)piperidin-1-yl)-2-azaspiro[3.4]octan-2-yl)(oxetan-3-yl)methanone]
0	–	0	> 25	Cc1nccnc1N1CC2(CC[C@@H](N3CCC(c4ccccc4OCC(C)(C)O)CC3)C2)C1 [Example 5T, (R)-2-methyl-1-(2-(1-(2-(3-methylpyrazin-2-yl)-2-azaspiro[3.4]octan-6-yl)piperidin-4-yl)phenoxy)propan-2-ol]
0	–	0	> 25	c1ccc(C2CCN([C@H]3CCC4(C3)CN(c3nnco3)C4)CC2)c(C2CCOCC2)c1 (single isomer, unassigned) [Example 10T]
0	–	0	> 25	CC(C)(O)CCOc1ccccc1C1CCN([C@@H]2CCC3(C2)CN(c2ncns2)C3)CC1 [Example 3L, (R)-4-(2-(1-(2-(1,2,4-thiadiazol-5-yl)-2-azaspiro[3.4]octan-6-yl)piperidin-4-yl)phenoxy)-2-methylbutan-2-ol]
13	0.739	0	> 25	c1ccc(C2CCN([C@@H]3CCC4(C3)CN(c3cncnc3)C4)CC2)c(C2CCOCC2)c1 [Example 5BB, (R)-2-(pyrimidin-5-yl)-6-(4-(2-(tetrahydro-2H-pyran-4-yl)phenyl)piperidin-1-yl)-2-azaspiro[3.4]octane]
0	–	0	> 25	O=C(C1COC1)N1CC2(CC[C@@H](N3CCC(c4ccc(F)cc4OC(F)F)CC3)C2)C1 [Example 6B, (R)-(6-(4-(2-(difluoromethoxy)-4-fluorophenyl)piperidin-1-yl)-2-azaspiro[3.4]octan-2-yl)(oxetan-3-yl)methanone]
0	–	0	> 25	CC(C)(O)COc1ccccc1C1CCN([C@@H]2CCC3(C2)CN(C(=O)C2COC2)C3)CC1 [Example 7L, (R)-(6-(4-(2-(2-hydroxy-2-methylpropoxy)phenyl)piperidin-1-yl)-2-azaspiro[3.4]octan-2-yl)(oxetan-3-yl)methanone]
0	–	0	> 25	COCCOc1ccccc1C1CCN([C@@H]2CCC3(C2)CN(c2cccnn2)C3)CC1 [Example 5X, (R)-6-(4-(2-(2-methoxyethoxy)phenyl)piperidin-1-yl)-2-(pyridazin-3-yl)-2-azaspiro[3.4]octane]
0	–	0	> 25	c1ccc(C2CCN([C@@H]3CCC4(C3)CN(c3nnco3)C4)CC2)c(CC2CCOCC2)c1 [Example 2L, (R)-2-(6-(4-(2-((tetrahydro-2H-pyran-4-yl)methyl)phenyl)piperidin-1-yl)-2-azaspiro[3.4]octan-2-yl)-1,3,4-oxadiazole]
18	110	0	> 25	O=C(C1COC1)N1CC2(CC[C@@H](N3CCC(c4ccccc4OC(F)(F)F)CC3)C2)C1 [Example 12A, (R)-oxetan-3-yl(6-(4-(2-(trifluoromethoxy)phenyl)piperidin-1-yl)-2-azaspiro[3.4]octan-2-yl)methanone]
0	–	0	> 25	O=C(N1CC2(CC[C@@H](N3CCC(c4ccccc4C4CCOCC4)CC3)C2)C1)C1(F)CC1 [Example 6E, (R)-(1-fluorocyclopropyl)(6-(4-(2-(tetrahydro-2H-pyran-4-yl)phenyl)piperidin-1-yl)-2-azaspiro[3.4]octan-2-yl)methanone]
16	0.018	0	> 25	c1ccc(C2CCN([C@@H]3CCC4(C3)CN(c3nncs3)C4)CC2)c(OC[C@H]2COCCO2)c1 [Example 3B, 2-((R)-6-(4-(2-(((R)-1,4-dioxan-2-yl)methoxy)phenyl)piperidin-1-yl)-2-azaspiro[3.4]octan-2-yl)-1,3,4-thiadiazole]
30	0.402	0	> 25	c1ccc(C2CCN([C@@H]3CCC4(C3)CN(c3cncnc3)C4)CC2)c(OCC2CCOCC2)c1 [Example 1M, (R)-2-(pyrimidin-5-yl)-6-(4-(2-((tetrahydro-2H-pyran-4-yl)methoxy)phenyl)piperidin-1-yl)-2-azaspiro[3.4]octane]
10	0.09	0	> 25	CC1(COc2ccccc2C2CCN([C@@H]3CCC4(C3)CN(c3nnco3)C4)CC2)CCOCC1 [Example 2E, (R)-2-(6-(4-(2-((4-methyltetrahydro-2H-pyran-4-yl)methoxy)phenyl)piperidin-1-yl)-2-azaspiro[3.4]octan-2-yl)-1,3,4-oxadiazole]
0	–	0	> 25	O=C(C1COC1)N1CC2(CC[C@H](N3CCC(c4ccccc4OC(F)(F)F)CC3)C2)C1 (single isomer, unassigned) [Example 8G]
19	0.029	0	> 25	c1ccc(C2CCN([C@@H]3CCC4(C3)CN(c3cncnc3)C4)CC2)c(OC2COC2)c1 [Example 1K, (R)-6-(4-(2-(oxetan-3-yloxy)phenyl)piperidin-1-yl)-2-(pyrimidin-5-yl)-2-azaspiro[3.4]octane]
7	0.007	0	> 25	c1ccc(C2CCN([C@@H]3CCC4(C3)CN(c3cncnc3)C4)CC2)c(O[C@@H]2CCOC2)c1 [Example 1P, (R)-2-(pyrimidin-5-yl)-6-(4-(2-(((R)-tetrahydrofuran-3-yl)oxy)phenyl)piperidin-1-yl)-2-azaspiro[3.4]octane]
0	–	0	> 25	COCCOc1ccccc1C1CCN([C@@H]2CCC3(C2)CN(c2ncns2)C3)CC1 [Example 3J, (R)-5-(6-(4-(2-(2-methoxyethoxy)phenyl)piperidin-1-yl)-2-azaspiro[3.4]octan-2-yl)-1,2,4-thiadiazole]
9	0.724	14	0.974	O=C(C1COC1)N1CC2(CC[C@@H](N3CCC(c4ccccc4OCCC(F)(F)F)CC3)C2)C1 [Example 7GG, (R)-oxetan-3-yl(6-(4-(2-(3,3,3-trifluoropropoxy)phenyl)piperidin-1-yl)-2-azaspiro[3.4]octan-2-yl)methanone]
10	0.032	0	> 25	COc1ccc(F)cc1C1CCN([C@@H]2CCC3(C2)CN(C(=O)C2COC2)C3)CC1 [Example 6A, (R)-(6-(4-(5-fluoro-2-methoxyphenyl)piperidin-1-yl)-2-azaspiro[3.4]octan-2-yl)(oxetan-3-yl)methanone]
